This passage reports IC50 results from patent US20130131043A1, “PYRAZOLE COMPOUNDS AS JAK INHIBITORS” (priority 2010, published 2013).

Bounds are passed on as bounds.

Experiment [1] concerns the target T1, JAK3 (Homo sapiens, UniProt P52333).
T1 construct: endogenous in cells; host or cells: Molt4 (ATCC CRL-1582) and Ramos (ATCC CRL-1596) cell lysate; mixed Molt4/Ramos lysate 1:2
T1 sequence (P52333 1-1124): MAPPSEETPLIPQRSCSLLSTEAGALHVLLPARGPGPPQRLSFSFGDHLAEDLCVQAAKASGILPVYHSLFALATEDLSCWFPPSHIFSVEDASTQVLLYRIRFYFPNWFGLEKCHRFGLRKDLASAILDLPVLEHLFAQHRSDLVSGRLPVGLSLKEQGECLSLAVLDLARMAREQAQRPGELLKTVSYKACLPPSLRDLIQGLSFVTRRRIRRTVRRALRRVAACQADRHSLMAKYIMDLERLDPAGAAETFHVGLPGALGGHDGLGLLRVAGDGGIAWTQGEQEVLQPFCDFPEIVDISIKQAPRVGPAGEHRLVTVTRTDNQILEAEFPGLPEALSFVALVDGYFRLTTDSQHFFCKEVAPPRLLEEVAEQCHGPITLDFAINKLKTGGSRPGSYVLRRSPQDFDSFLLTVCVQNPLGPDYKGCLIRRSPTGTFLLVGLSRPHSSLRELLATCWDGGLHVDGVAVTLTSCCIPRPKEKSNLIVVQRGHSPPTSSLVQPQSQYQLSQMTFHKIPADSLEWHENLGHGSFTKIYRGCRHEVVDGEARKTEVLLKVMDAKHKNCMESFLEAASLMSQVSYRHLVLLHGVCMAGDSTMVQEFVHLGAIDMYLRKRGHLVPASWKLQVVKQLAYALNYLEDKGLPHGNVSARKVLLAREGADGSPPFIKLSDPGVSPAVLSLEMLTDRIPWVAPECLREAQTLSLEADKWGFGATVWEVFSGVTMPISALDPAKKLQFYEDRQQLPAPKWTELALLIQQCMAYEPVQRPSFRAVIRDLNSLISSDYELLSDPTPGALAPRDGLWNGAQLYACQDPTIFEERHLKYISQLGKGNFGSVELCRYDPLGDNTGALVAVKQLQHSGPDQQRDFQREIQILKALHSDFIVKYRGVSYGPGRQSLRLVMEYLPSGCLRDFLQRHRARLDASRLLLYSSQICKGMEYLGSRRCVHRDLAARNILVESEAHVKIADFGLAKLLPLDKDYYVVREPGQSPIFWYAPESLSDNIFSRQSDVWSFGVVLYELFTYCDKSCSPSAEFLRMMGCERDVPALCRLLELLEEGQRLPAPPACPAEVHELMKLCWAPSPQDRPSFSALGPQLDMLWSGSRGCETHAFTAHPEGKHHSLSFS
In words: Kinobeads assay, JAK3 (competition binding in cell lysate, dot blot detection). Conditions: mixed Molt4/Ramos lysate. The procedure:
(§1) The compounds of the present invention as described in the previous examples were tested in a Kinobeads™ assay as described for ZAP-70 (WO-A 2007/137867). Briefly, test compounds (at various concentrations) and the affinity matrix with the immobilized aminopyrido-pyrimidine ligand 24 were added to cell lysate aliquots and allowed to bind to the proteins in the lysate sample. After the incubation time the beads with captured proteins were separated from the lysate. Bound proteins were then eluted and the presence of JAK2 and JAK3 was detected and quantified using specific antibodies in a dot blot procedure and the Odyssey infrared detection system. Dose response curves for individual kinases were generated and IC50 values calculated. Kinobeads™ assays for ZAP-70 (WO-A 2007/137867) and for kinase selectivity profiling (WO-A 2006/134056) have been previously described.
(§2) 5×DP buffer: 250 mM Tris-HCl pH 7.4, 25% Glycerol, 7.5 mM MgCl2, 750 mM NaCl, 5 mM Na3VO4; filter the 5×DP buffer through a 0.22 μm filter and store in aliquots at −80° C. The 5×DP buffer is diluted with H2O to 1×DP buffer containing 1 mM DTT and 25 mM NaF.
(§3) Stock solutions of test compounds were prepared in DMSO. In a 96 well plate 30 μL solution of diluted test compounds at 5 mM in DMSO were prepared. Starting with this solution a 1:3 dilution series (9 steps) was prepared. For control experiments (no test compound) a buffer containing 2% DMSO was used.
(§4) Molt4 cells (ATCC catalogue number CRL-1582) and Ramos cells (ATCC catalogue number CRL-1596) were grown in 1 L Spinner flasks (Integra Biosciences, #182101) in suspension in RPMI 1640 medium (Invitrogen, #21875-034) supplemented with 10% Fetal Bovine Serum (Invitrogen) at a density between 0.15×10^6 and 1.2×10^6 cells/mL. Cells were harvested by centrifugation, washed once with 1×PBS buffer (Invitrogen, #14190-094) and cell pellets were frozen in liquid nitrogen and subsequently stored at −80° C. Cells were homogenized in a Potter S homogenizer in lysis buffer: 50 mM Tris-HCl, 0.8% NP40, 5% glycerol, 150 mM NaCl, 1.5 mM MgCl2, 25 mM NaF, 1 mM sodium vanadate, 1 mM DTT, pH 7.5. One complete EDTA-free tablet (protease inhibitor cocktail, Roche Diagnostics, 1873580) per 25 mL buffer was added. The material was dounced 10 times using a mechanized POTTER S, transferred to 50 mL falcon tubes, incubated for 30 minutes on ice and spun down for 10 minutes at 20,000 g at 4° C. (10,000 rpm in Sorvall SLA600, precooled). The supernatant was transferred to an ultracentrifuge (UZ)-polycarbonate tube (Beckmann, 355654) and spun for 1 hour at 100.000 g at 4° C. (33.500 rpm in Ti50.2, precooled). The supernatant was transferred again to a fresh 50 mL falcon tube, the protein concentration was determined by a Bradford assay (BioRad) and samples containing 50 mg of protein per aliquot were prepared. The samples were immediately used for experiments or frozen in liquid nitrogen and stored frozen at −80° C.
(§5) Cell lysate (approximately 50 mg protein per plate) was thawed in a water bath at room temperature and then stored on ice. To the thawed cell lysate 1×DP 0.8% NP40 buffer containing protease inhibitors (1 tablet for 25 mL buffer; EDTA-free protease inhibitor cocktail; Roche Diagnostics 1873580) was added in order to reach a final protein concentration of 10 mg/mL total protein. The diluted cell lysate was stored on ice. Mixed Molt4/Ramos lysate was prepared by combining one volume of Molt4 lysate and two volumes of Ramos lysate (ratio 1:2).
(§6) Plates were sealed and incubated for 3 hours in a cold room on a plate shaker (Heidolph tiramax 1000) at 750 rpm. Afterwards the plate was washed 3 times with 230 μL washing buffer (1×DP 0.4% NP40). The filter plate was placed on top of a collection plate (Greiner bio-one, PP-microplate 96 well V-shape, 65120) and the beads were then eluted with 20 μL of sample buffer (100 mM Tris, pH 7.4, 4% SDS, 0.00025% bromophenol blue, 20% glycerol, 50 mM DTT). […]

The target in experiment [2] is T2, JAK2 (Homo sapiens, UniProt O60674).
T2 construct: endogenous in cells; host or cells: Molt4 (ATCC CRL-1582) and Ramos (ATCC CRL-1596) cell lysate; mixed Molt4/Ramos lysate 1:2
T2 sequence (O60674 whole entry): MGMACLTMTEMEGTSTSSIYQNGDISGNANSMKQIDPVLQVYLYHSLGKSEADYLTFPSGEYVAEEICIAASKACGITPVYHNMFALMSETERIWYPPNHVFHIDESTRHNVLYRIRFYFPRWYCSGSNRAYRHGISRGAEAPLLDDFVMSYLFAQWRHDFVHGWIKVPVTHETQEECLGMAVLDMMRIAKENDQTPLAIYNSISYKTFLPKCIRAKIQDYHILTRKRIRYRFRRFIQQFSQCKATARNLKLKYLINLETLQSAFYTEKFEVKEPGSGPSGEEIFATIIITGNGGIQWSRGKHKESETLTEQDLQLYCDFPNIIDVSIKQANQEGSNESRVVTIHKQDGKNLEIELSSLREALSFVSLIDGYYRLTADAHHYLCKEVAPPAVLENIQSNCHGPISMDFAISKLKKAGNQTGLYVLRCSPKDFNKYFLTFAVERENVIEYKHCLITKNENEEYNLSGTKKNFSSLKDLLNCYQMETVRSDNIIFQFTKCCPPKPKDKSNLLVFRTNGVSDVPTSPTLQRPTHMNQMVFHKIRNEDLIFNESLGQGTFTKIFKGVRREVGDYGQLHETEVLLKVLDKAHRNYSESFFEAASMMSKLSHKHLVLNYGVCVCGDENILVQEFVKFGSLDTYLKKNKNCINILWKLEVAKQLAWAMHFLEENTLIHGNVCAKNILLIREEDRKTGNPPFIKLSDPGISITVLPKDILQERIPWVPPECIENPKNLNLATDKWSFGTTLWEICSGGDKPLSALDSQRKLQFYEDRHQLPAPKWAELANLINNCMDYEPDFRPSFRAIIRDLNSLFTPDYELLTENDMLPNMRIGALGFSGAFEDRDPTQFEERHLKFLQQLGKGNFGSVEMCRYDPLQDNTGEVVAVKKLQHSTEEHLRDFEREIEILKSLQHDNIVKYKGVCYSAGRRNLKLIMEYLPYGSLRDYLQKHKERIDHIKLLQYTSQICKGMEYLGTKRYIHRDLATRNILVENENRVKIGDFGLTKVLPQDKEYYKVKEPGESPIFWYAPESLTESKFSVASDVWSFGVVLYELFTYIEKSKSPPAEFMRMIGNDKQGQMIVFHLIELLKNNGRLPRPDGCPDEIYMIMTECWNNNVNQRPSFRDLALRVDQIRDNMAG
In words: Kinobeads assay, JAK2 (competition binding in cell lysate, dot blot detection). As to conditions: mixed Molt4/Ramos lysate. The procedure: as §1, §2, §3, §4, §5, §6

One may read the IC50 as the midpoint of a concentration-inhibition curve. A lower IC50 goes with inhibition by little substance. Regarding `CC(C)NC(=O)CN1CCCC(Cn2ncc3cnc(Nc4cnn(C)c4)nc32)C1` (centres unmarked) [Example 63, N-isopropyl-2-(3-((6-((1-methyl-1H-pyrazol-4-yl)amino)-1H-pyrazolo[3,4-d]pyrimidin-1-yl)methyl)piperidin-1-yl)acetamide], the figures for the IC50 in experiment [1] and in experiment [2] were 100 to 1000 nM and > 10000 nM, respectively.

Consider `CS(=O)(=O)N1CCCC(Cn2ncc3cnc(Nc4cnn(CC(F)F)c4)nc32)C1` (centres unmarked) [Example 4, N-(1-(2,2-difluoroethyl)-1H-pyrazol-4-yl)-1-((1-(methylsulfonyl)piperidin-3-yl)methyl)-1H-pyrazolo[3,4-d]pyrimidin-6-amine], for which the IC50 in experiment [1] is < 100 nM; in experiment [2] it was 1000 to 10000 nM.

Consider `N#CCCN1CCCC(Cn2ncc3cnc(Nc4cnn(CC(F)F)c4)nc32)C1` (centres unmarked) [Example 57, 3-(3-((6-((1-(2,2-difluoroethyl)-1H-pyrazol-4-yl)amino)-1H-pyrazolo[3,4-d]pyrimidin-1-yl)methyl)piperidin-1-yl)propanenitrile], for which the IC50 in experiment [1] is < 100 nM; in experiment [2], > 10000 nM.

Regarding `Cn1cc(Nc2ncc3cnn(CCC4CCCN(S(C)(=O)=O)C4)c3n2)cn1` (centres unmarked) [Example 34, N-(1-methyl-1H-pyrazol-4-yl)-1-(2-(1-(methylsulfonyl)piperidin-3-yl)ethyl)-1H-pyrazolo[3,4-d]pyrimidin-6-amine], the IC50 in experiment [1] fell in the range of 100 to 1000 nM; in experiment [2] it was 1000 to 10000 nM.

`CC1CCC(n2ncc3cnc(Nc4cnn(C)c4)nc32)C1` (mixture of isomers) [Example 15, N-(1-Methyl-1H-pyrazol-4-yl)-1-(3-methylcyclopentyl)-1H-pyrazolo[3,4-d]pyrimidin-6-amine]: the IC50 in experiment [1] fell in the range of 100 to 1000 nM; in experiment [2] it was 1000 to 10000 nM.

On to `Cn1cc(Nc2ncc3cnn(CC4CCCN(C(=O)C5CCOCC5)C4)c3n2)cn1` (centres unmarked) [Example 28, (3-((6-((1-methyl-1H-pyrazol-4-yl)amino)-1H-pyrazolo[3,4-d]pyrimidin-1-yl)methyl)piperidin-1-yl)(tetrahydro-2H-pyran-4-yl)methanone], for which the IC50 in experiment [1] is 100 to 1000 nM; in experiment [2] it was > 10000 nM.

In the case of `COCCCN1CCCC(Cn2ncc3cnc(Nc4cnn(C)c4)nc32)C1` (centres unmarked) [Example 58, 1-((1-(3-methoxypropyl)piperidin-3-yl)methyl)-N-(1-methyl-1H-pyrazol-4-yl)-1H-pyrazolo[3,4-d]pyrimidin-6-amine], the IC50 in experiment [1] is 100 to 1000 nM; in experiment [2], > 10000 nM.

For the molecule `CSCCC(=O)N1CCCC(Cn2ncc3cnc(Nc4cnn(CC(F)F)c4)nc32)C1` (centres unmarked) [Example 56, 1-(3-((6-((1-(2,2-difluoroethyl)-1H-pyrazol-4-yl)amino)-1H-pyrazolo[3,4-d]pyrimidin-1-yl)methyl)piperidin-1-yl)-3-(methylthio)propan-1-one], the figures for the IC50 in experiment [1] and in experiment [2] were 100 to 1000 nM and > 10000 nM, respectively.

As for `COCC(=O)N1CCCC(Cn2ncc3cnc(Nc4cnn(C)c4)nc32)C1` (centres unmarked) [Example 21, 2-methoxy-1-(3-((6-((1-methyl-1H-pyrazol-4-yl)amino)-1H-pyrazolo[3,4-d]pyrimidin-1-yl)methyl)piperidin-1-yl)ethanone], the IC50 is < 100 nM in experiment [1] and > 10000 nM in experiment [2].

`CS(=O)(=O)CCC(=O)N1CCCC(Cn2ncc3cnc(Nc4cnn(CC(F)F)c4)nc32)C1` (centres unmarked) [Example 59, 1-(3-((6-((1-(2,2-difluoroethyl)-1H-pyrazol-4-yl)amino)-1H-pyrazolo[3,4-d]pyrimidin-1-yl)methyl)piperidin-1-yl)-3-(methylsulfonyl)propan-1-one]: the IC50 in experiment [1] is 100 to 1000 nM; in experiment [2], > 10000 nM.

As for `Cn1cc(Nc2ncc3cnn(CC4CCCCC4)c3n2)cn1` [Example 16, 1-(Cyclohexylmethyl)-N-(1-methyl-M-pyrazol-4-yl)-1H-pyrazolo[3,4-d]pyrimidin-6-amine], the figures for the IC50 in experiment [1] and in experiment [2] were < 100 nM and 1000 to 10000 nM, respectively.

For `Cn1cc(Nc2ncc3cnn(CCC4CCCNC4)c3n2)cn1` (centres unmarked) [Example 30, N-(1-methyl-1H-pyrazol-4-yl)-1-(2-(piperidin-3-yl)ethyl)-1H-pyrazolo[3,4-d]pyrimidin-6-amine], the values for the IC50 in experiment [1] and in experiment [2] were 100 to 1000 nM and > 10000 nM, respectively.

As for `Cn1cc(Nc2ncc3cnn(CC4CCN(S(C)(=O)=O)C4)c3n2)cn1` (centres unmarked) [Example 48, N-(1-methyl-1H-pyrazol-4-yl)-1-((1-(methylsulfonyl)pyrrolidin-3-yl)methyl)-1H-pyrazolo[3,4-d]pyrimidin-6-amine], the IC50 in experiment [1] is 100 to 1000 nM; in experiment [2], > 10000 nM.

As to `Cn1cc(Nc2ncc3cnn(C4CCCCC4)c3n2)cn1` [Example 8, 1-cyclohexyl-N-(1-methyl-1H-pyrazol-4-yl)-1H-pyrazolo[3,4-d]pyrimidin-6-amine], the figures for the 50% inhibitory concentration (IC50) in experiment [1] and in experiment [2] were 100 to 1000 nM and > 10000 nM, respectively.

Take `Cn1cc(Nc2ncc3cnn(C4CCOCC4)c3n2)cn1` [Example 9, N-(1-methyl-1H-pyrazol-4-yl)-1-(tetrahydro-2H-pyran-4-yl)-1H-pyrazolo[3,4-d]pyrimidin-6-amine]: the IC50 was 100 to 1000 nM in experiment [1] and > 10000 nM in experiment [2].

On to `CC(=O)NC1CCC(n2ncc3cnc(Nc4cnn(C)c4)nc32)CC1` (centres unmarked) [Example 22, N-(4-(6-((1-methyl-1H-pyrazol-4-yl)amino)-1H-pyrazolo[3,4-d]pyrimidin-1-yl)cyclohexyl)acetamide], for which the IC50 in experiment [1] lay in the range of 100 to 1000 nM; in experiment [2] it was 1000 to 10000 nM.
